Measured values: the NIST ThermoML archive (doi:10.1016/j.tca.2015.01.022)

Assay: molar heat capacity at constant pressure
Details: 101.33 kPa, Glass, Small (less than 1 g) adiabatic calorimetry

CCOS(=O)(=O)[O-].CCn1cc[n+](C)c1 [1-ethyl-3-methylimidazolium ethyl sulfate]
Details	molar heat capacity at constant pressure [J/K/mol]
5 K	1.02
7.21 K	2.892
7.52 K	3.232
7.89 K	3.662
8.26 K	4.116
8.64 K	4.61
9.02 K	5.113
9.4 K	5.662
9.78 K	6.226
10 K	6.55
10.17 K	6.81
10.66 K	7.609
11.26 K	8.587
11.87 K	9.634
12.47 K	10.71
13.09 K	11.85
13.7 K	13.01
14.32 K	14.24
14.95 K	15.52
15 K	15.63
15.69 K	17.06
16.54 K	18.87
17.39 K	20.71
18.24 K	22.56
19.1 K	24.43
19.96 K	26.32
20 K	26.45
21.16 K	29.04
22.71 K	32.61
24.26 K	36.22
25 K	37.93
25.81 K	39.86
27.37 K	43.43
28.95 K	47.02
30 K	49.4
30.54 K	50.61
32.28 K	54.42
33.12 K	56.24
35 K	60.18
35.01 K	60.28
36.91 K	64.15
38.82 K	68
40 K	70.37
40.72 K	71.74
42.73 K	75.61
44.84 K	79.65
45 K	79.98
46.95 K	83.58
49.06 K	87.43
50 K	89
51.17 K	91.07
53.29 K	94.63
55.41 K	98.01
57.53 K	101.3
59.66 K	104.5
60 K	105.1
61.79 K	107.7
63.92 K	110.7
66.06 K	113.7
68.21 K	116.6
70 K	119
70.35 K	119.5
72.59 K	122.4
74.94 K	125.3
77.3 K	128.3
79.66 K	131.2
80 K	131.5
80.4 K	132.1
82.02 K	133.9
82.22 K	134.2
84.05 K	136.2
84.39 K	136.7
85.88 K	138.3
87.71 K	140.4
89.54 K	142.4
90 K	143
91.38 K	144.4
93.22 K	146.5
95.06 K	148.5
96.91 K	150.4
98.76 K	152.4
100 K	153.7
100.61 K	154.3
102.46 K	156.2
104.31 K	158
106.16 K	159.9
108.05 K	161.9
109.91 K	163.7
110 K	163.7
111.77 K	165.5
113.63 K	167.3
115.49 K	169.2
117.36 K	171
119.23 K	172.8
120 K	173.5
121.1 K	174.6
122.98 K	176.4
124.42 K	177.8
124.85 K	178.2
126.41 K	179.7
126.73 K	180
128.28 K	181.4
128.61 K	181.8
130 K	183.1
130.16 K	183.3
130.5 K	183.6
132.03 K	185.1
132.38 K	185.4
133.91 K	186.9
134.27 K	187.2
135.79 K	188.7
136.16 K	189.1
137.67 K	190.6
138.05 K	190.9
139.55 K	192.4
139.95 K	192.7
140 K	192.8
141.43 K	194.2
141.84 K	194.5
143.31 K	196
143.74 K	196.4
145.19 K	197.9
145.64 K	198.2
147.07 K	199.7
147.53 K	200.1
148.95 K	201.6
149.43 K	202
150 K	202.6
150.83 K	203.5
151.33 K	203.9
152.71 K	205.3
153.23 K	205.8
154.59 K	207.2
155.13 K	207.8
155.16 K	207.7
156.47 K	209.1
157.04 K	209.7
157.27 K	209.9
158.34 K	211.1
158.94 K	211.7
159.27 K	212
160 K	212.7
160.22 K	213.1
160.84 K	213.8
161.27 K	214.3
162.09 K	215
162.75 K	215.8
163.26 K	216.4
163.96 K	217.2
164.67 K	217.8
165.26 K	218.6
165.83 K	219.3
166.58 K	220.1
167.25 K	221
167.7 K	221.5
168.51 K	222.3
169.24 K	223.4
169.57 K	223.8
170 K	224.3
170.43 K	224.8
171.36 K	226.2
171.44 K	226.5
172.36 K	227.7
173.31 K	229.1
173.44 K	229.3
174.29 K	230.5
175.18 K	232
175.43 K	232.4
176.22 K	233.7
177.04 K	235.4
177.41 K	236.3
178.16 K	237.7
178.9 K	239.4
179.39 K	240.8
180 K	242.6
180.1 K	242.9
